Where “and” joins values, the source holds several entries; their conditions need not be identical. Equal values may be shown once.
Assay: HFrEF study Part 2 (MAD Cohorts A-D): plasma pharmacokinetics
Assay type: in vivo, human
Conditions: for AUC_TAU: steady state
Source text: This was a randomized, parallel-group, DB, placebo-controlled, adaptive design, sequential ascending (oral) multiple-close study in stable patients with heart failure. Four MAD Cohorts (A, B, C, D) were enrolled (FIG. 5B). An SRC reviewed results from each cohort and determined the close and confirmed initial sample size for the subsequent cohort. Additionally, the first 3 patients in each cohort had LVEF≥25%; the SRC reviewed preliminary safety data from these patients and decided whether to open cohort enrollment to patients with LVEF<25%.
After Screening and qualification, patients were confined to a clinical testing facility from Day 1 (Check-in) to Day 11. Each patient initially received placebo BID for 2 days (Days 1 and 2) in single-blinded manner (“run-in” during acclimatization to confinement in the Clinical Testing Unit) prior to receiving the randomized DB study drug treatment on Day 3. All patients then received either placebo or active Compound I for 7 days (Days 3 through 9), with a follow-up period with patients discharged from the unit on Day 11. A final follow-up clinic visit was conducted on Day 16. More than one patient could be closed in a cohort at the same time or during the same week depending on administrative issues, i.e., capacity and scheduling.
Patients were closed twice daily (every 12 hours). Doses could occur±2 hours from scheduled dosing times as long as closes were separated by at least 10 hours and by no more than 14 hours. The exception to the twice daily dosing was on Day 9 (last dose of randomized DB study drug treatment). On Day 9, a single morning close was administered.
During the study, multiple evaluations were performed that included: serial TTE assessments (11-14 TTEs per patient on Days 1, 2, 3, 4, 7, 9, 10 and 11); PK sampling (PK sample collected concomitantly with every post-randomization echocardiogram); ECGs (on Days 2, 3, 4, 7, 9, 10, 11 and 16); troponin (collected concomitantly with every post-randomization ECG); and safety laboratory assessments. Confined patients underwent continuous telemetry. Holter monitoring was performed in all patients at baseline (Days 1-2) and at the end of double-blind treatment (Days 7-9). Vital signs were collected daily.
Study medication consisted of Compound I 5 mg tablets, 25 mg tablets, 100 mg tablets, or matching placebo tablets. In Part 1 (SAD), Compound I or placebo was administered after an overnight fast (at least 6 hours), while in Part 2 (MAD), Compound I was administered after a 2 hour fast (Cohort A) or with food (Cohorts B, C, and D). The close was ingested with a minimum of 240 mL of water, but more water was ingested as needed. The entire close was administered over a period of up to 15 minutes. The time of close used to determine future assessments was the time the last tablet was taken. In the cohorts for Part 2 (MAD), a BID regimen was used.
In Part 2 (MAD), Cohort A patients fasted for 2 hours before and 2 hours after dosing. For example, if morning dosing occurred at 8 AM, patients could have a snack at 6 AM and a full breakfast at 10 AM. If afternoon dosing occurred at 8 PM, patients could have dinner at 6 PM and a snack at 10 PM. […] Cohort B, C, and D patients ingested food with each close.

[1] = Cohort A + C (n = 14), 75 mg BID
[2] = MAD Cohort A, 75 mg BID (4 h fasting), Mean
[3] = MAD Cohort A, 75 mg BID (4 h fasting), individual subjects
[4] = MAD Cohort B, 50 mg BID (with food), Mean
[5] = MAD Cohort B, 50 mg BID (with food), individual subjects
[6] = MAD Cohort C, 75 mg BID (with food), Mean
[7] = MAD Cohort C, 75 mg BID (with food), individual subjects

Cn1cc(S(=O)(=O)[C@@](C)(F)C2CCN(C(=O)Nc3ccon3)CC2)c(C(F)F)n1 [Compound I, (R)-4-(1-((3-(difluoromethyl)-1-methyl-1H-pyrazol-4-yl)sulfonyl)-1-fluoroethyl)-N-(isoxazol-3-yl)piperidine-1-carboxamide]
Post-dose maximum concentration, steady-state (Day 9) plasma [1]: 3862 (27.7%) ng/mL | Pre-dose concentration, steady-state (Day 9) plasma [1]: 2930 (36.8%) ng/mL | time to steady-state plasma concentrations (Cohort A, 75 mg twice daily, fasted): approximately 3 days | Post-dose maximum concentration, steady-state (Day 9) plasma (Cohort B (n = 8), 50 mg BID): 2735 (17.5%) ng/mL | Pre-dose concentration, steady-state (Day 9) plasma (Cohort B (n = 8), 50 mg BID): 2096 (20.0%) ng/mL | time to steady-state plasma concentrations (Cohort B, 50 mg twice daily with food): approximately 4 days | Post-dose maximum concentration, steady-state (Day 9) plasma (Cohort D (n = 6), 100 mg BID): 5560 (22.8%) ng/mL | Pre-dose concentration, steady-state (Day 9) plasma (Cohort D (n = 6), 100 mg BID): 4694 (25.5%) ng/mL | Accumulation Ratio AUC tau [2]: 3.74 | Accumulation Ratio Cmax [2]: 3.53 | Accumulation_Index [2]: 3.11 | Cavg, ss [2]: 3420 ng/mL | Cmin, SS [2]: 2758 ng/mL | AUCtau, Day 1 [3]: 12360 ng·h/mL and 8025 ng·h/mL and 9501 ng·h/mL and 11570 ng·h/mL | Accumulation Ratio AUC tau [3]: 4.37 and 3.96 and 3.15* and 2.80 and 4.27 and 3.31 | Accumulation Ratio Cmax [3]: 4.32 and 3.46 and 2.51* and 2.80 and 4.06 and 2.99 | Accumulation_Index [3]: 3.82 and 3.89 and 2.79* and 2.21 and 3.00 and 2.61 | Cavg, ss [3]: 3846 ng/mL and 4079 ng/mL and 2108* ng/mL and 2215 ng/mL and 3774 ng/mL and 3188 ng/mL | Cmax, Day 1 [3]: 1360 ng/mL and 958 ng/mL and 981 ng/mL and 1100 ng/mL and 1250 ng/mL | Cmax, SS [3]: 4710 ng/mL and 2400* ng/mL and 2750 ng/mL and 4470 ng/mL and 3740 ng/mL | Cmin, SS [3]: 3050 ng/mL and 3510 ng/mL and 1450* ng/mL and 1740 ng/mL and 2880 ng/mL and 2610 ng/mL | t1/2, λz [3]: 27.41 hr and 28.02 hr and 18.78* hr and 13.84 hr and 20.55 hr and 17.21 hr | AUC_TAU [3]: 48950 hr*ng/mL and 25290* hr*ng/mL and 26580 hr*ng/mL and 45290 hr*ng/mL and 38250 hr*ng/mL | Accumulation Ratio AUC tau [4]: 4.09 | Accumulation Ratio Cmax [4]: 3.57 | Accumulation_Index [4]: 3.55 | Cavg, ss [4]: 2336 ng/mL | Cmin, SS [4]: 1989 ng/mL | AUCtau, Day 1 [5]: 5050 ng·h/mL and 6754 ng·h/mL and 8138 ng·h/mL and 8855 ng·h/mL and 7249 ng·h/mL and 6347 ng·h/mL and 8620 ng·h/mL | Accumulation Ratio AUC tau [5]: 4.00 and 6.37 and 5.22 and 3.26 and 4.07 and 3.30 and 3.63 and 2.88 | Accumulation Ratio Cmax [5]: 3.16 and 5.33 and 4.78 and 3.08 and 4.02 and 2.64 and 3.05 and 2.51 | Accumulation_Index [5]: 3.63 and 5.03 and 4.46 and 2.93 and 3.51 and 2.42 and 3.20 (2×) and 4.23* | Cavg, ss [5]: 2478 ng/mL and 2681 ng/mL and 2940 ng/mL and 2213 ng/mL and 3002 ng/mL and 1991 ng/mL and 1919 ng/mL and 2070 ng/mL and 1725* ng/mL | Cmax, Day 1 [5]: 548 ng/mL and 674 ng/mL and 830 ng/mL and 891 ng/mL and 901 ng/mL and 696 ng/mL and 974 ng/mL | Cmax, SS [5]: 2920 ng/mL and 3220 ng/mL and 2560 ng/mL and 3580 ng/mL and 2380 ng/mL and 2120 ng/mL and 2440 ng/mL and 2060* ng/mL | Cmin, SS [5]: 1900 ng/mL and 2380 ng/mL and 2640 ng/mL and 1810 ng/mL and 2370 ng/mL and 1440 ng/mL and 1720 ng/mL and 1650 ng/mL and 1320* ng/mL | t1/2, λz [5]: 25.81 hr and 37.48 hr and 32.77 hr and 19.93 hr and 24.77 hr and 15.57 hr and 22.23 hr and 22.21 hr and 30.87* hr | AUC_TAU [5]: 32170 hr*ng/mL and 35280 hr*ng/mL and 26560 hr*ng/mL and 36030 hr*ng/mL and 23890 hr*ng/mL and 23030 hr*ng/mL and 24840 hr*ng/mL and 20700* hr*ng/mL | Accumulation Ratio AUC tau [6]: 3.99 | Accumulation Ratio Cmax [6]: 3.28 | Accumulation_Index [6]: 3.18 | Cavg, ss [6]: 3357 ng/mL | Cmin, SS [6]: 2812 ng/mL | AUCtau, Day 1 [7]: 13270 ng·h/mL and 8280 ng·h/mL and 10790 ng·h/mL and 9731 ng·h/mL and 6976 ng·h/mL and 9166 ng·h/mL and 14840 ng·h/mL and 11840 ng·h/mL | Accumulation Ratio AUC tau [7]: 2.44 and 1.90 and 3.48 and 4.61 and 7.62 and 3.88 and 2.59 and 4.85 and 4.53 | Accumulation Ratio Cmax [7]: 2.17 and 1.80 and 3.20 and 4.06 and 4.80 and 2.80 and 2.38 and 4.63 and 3.68 | Accumulation_Index [7]: 2.18 and 2.39 and 2.99 and 3.31 and 5.51 and 2.43 and 2.20 and 4.17 and 3.42 | Cavg, ss [7]: 2695 ng/mL and 1308 ng/mL and 3126 ng/mL and 3738 ng/mL and 4432 ng/mL and 2963 ng/mL and 3206 ng/mL and 4267 ng/mL and 4474 ng/mL
